{"source": "patent US20050004010A1", "about": "“Cobalamin conjugates useful as imaging agents and as antitumor agents” (Mayo Foundation For Medical Education, priority 1999, published 2005)", "origin": "cited, not measured here", "details": "L isomer versus D isomer"}
{"smiles": "COc1cccc2c1C(=O)c1c(O)c3c(c(O)c1C2=O)C[C@@](O)(C(C)=O)C[C@@H]3O[C@H]1C[C@H](NC(=O)[C@@H](N)CC(C)C)C(O)[C@H](C)O1", "note": "(stereo partly drawn) [N-(L-leucyl) daunorubicin]", "values": [{"measurement": "hydrolysis in vivo to regenerate daunorubicin", "value": "hydrolyzed in vivo to regenerate daunorubicin"}]}
